≈ marks a conversion by molar mass, not a printed value. Like-named read-outs stand apart in the source and are kept apart here.
Test system: Heliothis virescens
Assay: Artificial diet feeding bioassay, mortality and growth inhibition in first-instar larvae
Assay type: in vivo, Heliothis virescens (tobacco budworm)
Settings: for LC50: Heliothis virescens, po; for EC50 (concentration causing 50% growth inhibition): Table 1, first-instar Heliothis virescens larvae, parentheses = 95% confidence limits; for EC50 (concentration causing 50% growth inhibition) / EC50: artificial diet; for insecticidal activity (in words): Heliothis virescens feeding; for EC50: Table 5, larval growth reduced to 50% of control, first instar Heliothis virescens, 95% confidence limits
Text: The results of the growth inhibitory and lethal activities of azadirachtin and these 8 derivatives when fed in an artificial diet to Heliothis virescens larvae are shown in Table 1. Similar to the results of Morgan, E. D., in "Natural pesticides from the Neem tree (Azadirachta indica A. Juss), Schmutterer, H., et al., Eds., Proc. First International Neem Conference (Rottach-Egern, 1980), German Agency for Technical Corporation,Eschborn, Germany, 1982, pps. 43-52 (hereinafter "Morgan"), neither deacetylation nor hydrogenation of the carbon-carbon double bond of the dihydrofuran ring moiety of azadirachtin had any significant effect on activity of the compound against H. virescens.
Mortality and growth inhibition in first-instar Heliothis
virescens larvae fed azadirachtin and eight derivatives in an
artificial diet (I. Kubo and J. A. Klocke, In: Plant Resistance to
Insects (P. A. Helin, Ed.), ACS Symposium Series 208, American Chemical
Society, Washington, D.C. (1983), pp. 329-346.).^a
^b LC50 values are the concentrations (ppm) causing 50%
^c EC50 values are the concentrations (ppm) causing 50% growth
^d Numbers in parentheses are the 95% confidence limits determined
using the methods of Litchfield and Wilcoxon, J. Pharmacol. Exp. Ther.
An artificial diet feeding bioassay with neonate larvae of tobacco budworm (Heliothis virescens) and fall armyworm (Spodoptera frugiperda) was used as previously described (Kubo and Klocke, 1983) to detect insecticidal activities in the plant extracts to monitor fractionation, and to determine the potency of the isolated constituents and derivatives. Potency was determined either as the effective concentration (EC50) of added material that is necessary to reduce larval growth to 50% of the control values or as the lethal concentration (LC50) of added material that is necessary to kill 50% of the treated larvae. EC50 and LC50 values were determined from log probit paper and analyzed statistically by the method of Litchfield and Wilcoxon, supra.

[1] = read-out: LC50 (concentration causing 50% mortality)

For `C/C=C(\C)C(=O)OC1CC(OC(C)=O)C2(C(=O)OC)COC3C2C12COC(OC(C)=O)(C(=O)OC)C2C(C)(C12OC1(C)C1CC2OC2OC=CC21O)C3O` (stereo not shown) [11-O-acetylazadirachtin], the LC50 [1] was 0.95 µg/mL (≈ 1.25 µM) and the “EC50 (concentration causing 50% growth inhibition)” value was 0.18 (0.08-0.40) ppm.

With `C/C=C(\C)C(=O)OC1CC(OC(C)=O)C2(C(=O)OC)COC3C2C12COC(OC)(C(=O)OC)C2C(C)(C12OC1(C)C1CC2OC2OC=CC21O)C3O` (stereo not shown) [11-O-methylazadirachtin] the LC50 [1] was 25 µg/mL (≈ 34 µM) and the “EC50 (concentration causing 50% growth inhibition)” value was 5.00 (1.54-16.25) ppm.

`CC(=O)C1C2(CO)C(OC(=O)/C=C/c3ccccc3)CC(O)C3(C)COC(C32)C(O)C1(C)C12OC1(C)C1CC2OC2OC=CC21O` (stereo not shown) [Compound 10, 1-cinnamoylmelianolone] was tested, and the “insecticidal activity (in words)” value was “approximately half that of azadirachtin”, the LC50 was 1.5 µg/mL (≈ 2.35 µM) and the EC50 was 0.12 ppm.

For `CC(=O)OC1CC(OC(=O)/C=C/c2ccccc2)C2(CO)C3C(OCC13C)C(O)C(C)(C13OC1(C)C1CC3OC3OC=CC31O)C2C(C)=O` (stereo not shown) [Compound 12, 1-cinnamoyl-3-0-acetylmelianolone], the “insecticidal activity (in words)” value was “approximately half that of azadirachtin”, the LC50 was 1.5 µg/mL (≈ 2.2 µM) and the EC50 was 0.15 ppm.

For `CC(=O)OCC12C(OC(=O)/C=C/c3ccccc3)CC(OC(C)=O)C3(C)COC(C31)C(O)C(C)(C13OC1(C)C1CC3OC3OC=CC31O)C2C(C)=O` (stereo not shown) [Compound 13, 1-cinnamoyl-3,19-0,0-diacetylmelianolone], the “insecticidal activity (in words)” value was “approximately half that of azadirachtin”, the LC50 was 1.5 µg/mL (≈ 2.08 µM) and the EC50 was 0.12 ppm.

For `CC(=O)C1C2(CO)C(O)CC(O)C3(C)COC(C32)C(O)C1(C)C12OC1(C)C1CC2OC2OC=CC21O` (stereo not shown) [Compound 14, decinnamoylmelianolone], the “insecticidal activity (in words)” value was “did not show good activity”, the LC50 was 10 µg/mL (≈ 19.7 µM) and the EC50 was 3.20 ppm.
